Read-outs that look alike come from different tables or passages of the source. Numbered stars: 1 amine (or outer) side, 2 acyl side, 3 side chain; on linkers, the order of the positions; unused ones are H or OH. Bridge positions count the residues as written; N and C are the ends. Side chains are listed from the residue outwards. Peptide text beside a SMILES is read from it. * marks the point of attachment. C20 diacid = O=C(O)CCCCCCCCCCCCCCCCCCC(=O)*; γGlu = O=C(O)[C@H](CCC(=O)[*:2])N[*:1]
Columns and labels:
[1] = target: T1, human amylin 3(a) receptor (human calcitonin receptor + RAMP-3) in BHK570 cells (Homo sapiens, UniProt O60896+P30988); assay: ASSAY (II)a functional assay, human amylin receptor (CRE luciferase); format: cell-based; conditions: for EC50: human amylin receptor functional potency, assay (II), read-out: hAmylin-R funct. EC50
T1 construct: expressed in transfected cells
In short: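 Cells were seeded and cultured overnight, then incubated with standard or sample for 3 h at 37° C in serum-containing medium at pH 7.4. The medium was then swapped for PBS, LucLite was added for 30 min at room temperature, and luminescence was recorded. Cells were BHK with CRE-luc and calcitonin receptor, ± RAMP-3.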

[2] = target: T2, human amylin receptor (membranes from Amylin 3(a)/CRE-luc cells) (Homo sapiens, UniProt O60896+P30988); assay: ASSAY (V) binding to the human amylin receptor (SPA, 125I-rat amylin); conditions: for IC50: Table 4, read-out: hAmylin-R bind IC50;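 on all read-outs here: competition binding of cell membranes (35 ng/µL) mixed with SPA beads in 384-well plates at 40 µL total volume, read by scintillation counting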
T2 construct: expressed in transfected cells
T2 sequence (P30988 25-474): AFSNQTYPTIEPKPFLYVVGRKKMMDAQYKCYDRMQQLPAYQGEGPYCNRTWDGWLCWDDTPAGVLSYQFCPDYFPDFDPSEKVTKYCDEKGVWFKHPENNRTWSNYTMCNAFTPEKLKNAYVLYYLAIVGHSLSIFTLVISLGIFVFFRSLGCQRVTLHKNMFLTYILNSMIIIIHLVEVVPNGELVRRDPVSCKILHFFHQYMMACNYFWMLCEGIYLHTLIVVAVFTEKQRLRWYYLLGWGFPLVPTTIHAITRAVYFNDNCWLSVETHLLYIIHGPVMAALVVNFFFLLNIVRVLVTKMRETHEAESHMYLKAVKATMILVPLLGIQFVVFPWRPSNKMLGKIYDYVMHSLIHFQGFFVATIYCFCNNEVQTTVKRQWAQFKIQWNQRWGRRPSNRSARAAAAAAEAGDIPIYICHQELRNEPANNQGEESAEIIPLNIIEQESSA
T2 sequence (O60896 24-148 partner): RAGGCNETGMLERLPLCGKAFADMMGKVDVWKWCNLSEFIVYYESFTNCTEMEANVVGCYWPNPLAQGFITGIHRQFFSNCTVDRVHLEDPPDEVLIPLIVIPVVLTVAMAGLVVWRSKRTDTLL

rat calcitonin receptor = target: T3, rat calcitonin receptor (Rattus norvegicus, UniProt P32214); assay: ASSAY (VIII) binding to the rat calcitonin receptor; conditions: Table 7, read-out: rCTR bind IC50
T3 construct: expressed in transfected cells; host or cells: BHK tk'ts 13 (transient, FuGENE 6), membranes
T3 sequence (P32214 25-479 isoform P32214-2 limits assumed): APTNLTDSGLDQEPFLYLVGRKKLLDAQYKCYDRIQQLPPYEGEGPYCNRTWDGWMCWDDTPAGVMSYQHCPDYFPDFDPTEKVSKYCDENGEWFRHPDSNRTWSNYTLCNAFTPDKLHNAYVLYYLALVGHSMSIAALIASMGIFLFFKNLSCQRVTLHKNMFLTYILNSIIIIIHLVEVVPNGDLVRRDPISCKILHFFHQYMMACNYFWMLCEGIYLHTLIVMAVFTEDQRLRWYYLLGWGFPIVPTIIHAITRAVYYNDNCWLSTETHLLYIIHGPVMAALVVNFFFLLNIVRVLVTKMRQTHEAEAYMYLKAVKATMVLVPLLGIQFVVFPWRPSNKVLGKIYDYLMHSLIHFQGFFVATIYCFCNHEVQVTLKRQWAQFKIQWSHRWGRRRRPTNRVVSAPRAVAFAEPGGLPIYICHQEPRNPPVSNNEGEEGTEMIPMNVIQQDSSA
In short: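 Transfect BHK tk′ts 13 cells transiently with rat calcitonin receptor, culture in DMEM containing 10% FBS, collect cells about 48 hours later, then prepare membranes.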

[3] = target: T4, rat amylin receptor (rat calcitonin receptor + rat RAMP 3) (Rattus norvegicus, UniProt P32214+Q9JJ73); assay: ASSAY (VI) binding to the rat amylin receptor; conditions: for IC50: binding to rat amylin receptor, read-out: rAmylin-R bind IC50
T4 construct: expressed in transfected cells; host or cells: BHK tk'ts 13 (transient, FuGENE 6), membranes
T4 sequence (P32214 25-479 isoform P32214-2 limits assumed): T3 sequence (P32214 25-479 isoform P32214-2 limits assumed)
T4 sequence (Q9JJ73 23-147 partner): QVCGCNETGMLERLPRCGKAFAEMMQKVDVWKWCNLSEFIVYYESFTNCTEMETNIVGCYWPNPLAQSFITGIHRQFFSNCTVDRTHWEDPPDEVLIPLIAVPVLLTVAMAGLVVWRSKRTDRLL
In short: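 Binding to the rat amylin receptor was determined with membrane preparations. The receptor was expressed by transiently transfecting BHK tk′ts 13 cells with rat calcitonin receptor, using FuGENE® 6 (Roche) according to the manufacturer's recommendations. Roughly 48 hours later the cells were harvested and their membranes isolated.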

[4] = ASSAY (IV) determination of solubility; format: physicochemical
In short: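 Polypeptide stock in water ([…]) was mixed 1:1 with 100 mM buffers: glycylglycine at pH 3.0, 4.0, 5.0 and bistrispropane at pH 6.0, 6.5, 7.0, 7.5, 8.0. After 18 hours at room temperature, samples were centrifuged and polypeptide concentration measured by UPLC.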

[5] = hCTR funct. EC50 divided by hAmylin-R funct. EC50
[6] = hCTR funct. EC50 over hAmylin-R funct. EC50
[7] = human functional selectivity: hCTR funct. EC50 / hAmylin-R funct. EC50
[8] = Table 5, selectivity, hCTR bind IC50 / hAmylin-R bind IC50
[9] = Table 5a, selectivity, hCTR bind IC50 / hAmylin-R bind IC50
[10] = Table 5b, selectivity, hCTR bind IC50 / hAmylin-R bind IC50
[11] = Table 5c, selectivity, hCTR bind IC50 / hAmylin-R bind IC50
[12] = Table 7, human binding selectivity, included for comparison
[13] = Table 7a (preferred compounds), human binding selectivity, included for comparison
[14] = ratio of human calcitonin receptor binding IC50 to human amylin receptor binding IC50
[15] = Table 7, rat binding selectivity, rCTR IC50 / rAmylin-R IC50
[16] = Table 7a (preferred compounds), rat binding selectivity, rCTR IC50 / rAmylin-R IC50
[17] = ratio of rCTR bind IC50 to rAmylin-R bind IC50
[18] = bistrispropane buffer, pH 6.5, read-out: Solubility pH 6.5 Concentration
[19] = bistrispropane buffer, pH 7.5, read-out: Solubility pH 7.5 Concentration
[20] = bistrispropane buffer, pH 6.0, read-out: Solubility pH 6.0 Concentration
[21] = bistrispropane buffer, pH 7.0, read-out: Solubility pH 7.0 Concentration
[22] = bistrispropane buffer, pH 8.0, read-out: Solubility pH 8.0 Concentration
[23] = glycylglycine buffer, pH 3.0, read-out: Solubility pH 3.0 Concentration
[24] = glycylglycine buffer, pH 4.0, read-out: Solubility pH 4.0 Concentration
[25] = glycylglycine buffer, pH 5.0, read-out: Solubility pH 5.0 Concentration

Ratio hCT/hAmylin funct. [1, 5]	Ratio hCT/hAmylin funct. [1, 6]	EC50 [1]	Ratio hCT/hAmylin funct. [1, 7]	IC50 [2]	Ratio hCT/hAmylin binding [2, 8]	Ratio hCT/hAmylin binding [2, 9]	Ratio hCT/hAmylin binding [2, 10]	Ratio hCT/hAmylin binding [2, 11]	Ratio hCT/hAmylin binding [2, 12]	Ratio hCT/hAmylin binding [2, 13]	Ratio hCT/hAmylin binding [2, 14]	IC50 (rat calcitonin receptor)	IC50 ([3]; Table 7)	Ratio rCT/rAmylin binding [3, 15]	Ratio rCT/rAmylin binding [3, 16]	Ratio rCT/rAmylin binding [3, 17]	solubility at 18 h [4, 18]	solubility at 18 h [4, 19]	solubility at 18 h [4, 20]	Structure (SMILES)	also measured
8.1	8.1	0.109 nM	8.1	0.076 nM	45.3	45.3	45.3	45.3	45.3	45.3	45.3	140 nM	0.161 nM	867.7	867.7	867.7	≥ 200 µM	≥ 200 µM	≥ 200 µM	CC[C@H](C)[C@H](NC(=O)[C@H](C)NC(=O)CNC(=O)[C@H](Cc1ccccc1)NC(=O)[C@H](CC(N)=O)NC(=O)[C@@H]1CCCN1C(=O)[C@H](CO)NC(=O)[C@H](CO)NC(=O)[C@H](Cc1c[nH]cn1)NC(=O)[C@H](CCCNC(=N)N)NC(=O)[C@H](CC(C)C)NC(=O)[C@H](Cc1ccccc1)NC(=O)[C@H](CO)NC(=O)[C@H](C)NC(=O)[C@H](CC(C)C)NC(=O)[C@H](CCCNC(=N)N)NC(=O)[C@H](CCC(N)=O)NC(=O)[C@@H](NC(=O)[C@H](C)NC(=O)[C@@H]1CSSC[C@H](NC(=O)[C@@H](N)CCCCNC(=O)CC[C@H](NC(=O)CC[C@H](NC(=O)CCCCCCCCCCCCCCCCCCC(=O)O)C(=O)O)C(=O)O)C(=O)N[C@@H](CC(N)=O)C(=O)N[C@@H]([C@@H](C)O)C(=O)N[C@@H](C)C(=O)N[C@@H]([C@@H](C)O)C(=O)N1)[C@@H](C)O)C(=O)N1CCC[C@H]1C(=O)N[C@@H](CO)C(=O)N[C@@H](CO)C(=O)N[C@H](C(=O)N[C@@H](CC(N)=O)C(=O)N[C@H](C(=O)NCC(=O)N1CCC[C@H]1C(=O)N[C@@H](CCC(=O)O)C(=O)N[C@H](C(=O)N[C@@H](Cc1ccc(O)cc1)C(N)=O)[C@@H](C)O)C(C)C)[C@@H](C)O [Example 120] (H-K([γGlu-γGlu-C20 diacid])CNTATCATQRLASFLRHSSPNFGAIPSSTNVGPETY-NH2; disulfide 2-7 (inferred); N-terminus assumed)	solubility at 18 h [4, 21]: ≥ 200 µM; solubility at 18 h [4, 22]: ≥ 200 µM; solubility at 18 h [4, 23]: ≥ 200 µM; solubility at 18 h [4, 24]: ≥ 200 µM; solubility at 18 h [4, 25]: ≥ 200 µM
15.0	15.0	0.364 nM	15.0	0.97 nM	50.3	50.3	50.3	50.3	50.3	50.3	50.3	61.7 nM	0.948 nM	65.1	65.1	65.1	≥ 200 µM	≥ 200 µM	≥ 200 µM	CC[C@H](C)[C@H](NC(=O)[C@H](C)NC(=O)CNC(=O)[C@H](Cc1ccccc1)NC(=O)[C@H](CC(N)=O)NC(=O)[C@@H]1CCCN1C(=O)[C@H](CO)NC(=O)[C@H](CO)NC(=O)[C@H](Cc1c[nH]cn1)NC(=O)[C@H](CCCNC(=N)N)NC(=O)[C@H](CC(C)C)NC(=O)[C@H](Cc1ccccc1)NC(=O)[C@H](CC(N)=O)NC(=O)[C@H](C)NC(=O)[C@H](CC(C)C)NC(=O)[C@H](CCCNC(=N)N)NC(=O)[C@H](CCC(N)=O)NC(=O)[C@@H](NC(=O)[C@H](C)NC(=O)[C@@H]1CSSC[C@H](NC(=O)[C@@H](N)CCCCNC(=O)CC[C@H](NC(=O)CCCCCCCCCCCCCCCCCCC(=O)O)C(=O)O)C(=O)N[C@@H](CC(N)=O)C(=O)N[C@@H]([C@@H](C)O)C(=O)N[C@@H](C)C(=O)N[C@@H]([C@@H](C)O)C(=O)N1)[C@@H](C)O)C(=O)N1CCC[C@H]1C(=O)N[C@@H](CO)C(=O)N[C@@H](CO)C(=O)N[C@H](C(=O)N[C@@H](CC(N)=O)C(=O)N[C@H](C(=O)NCC(=O)N[C@@H](CO)C(=O)N[C@@H](CCCCN)C(=O)N[C@H](C(=O)N[C@@H](Cc1ccc(O)cc1)C(N)=O)[C@@H](C)O)C(C)C)[C@@H](C)O [Example 35] (H-K([γGlu-C20 diacid])CNTATCATQRLANFLRHSSPNFGAIPSSTNVGSKTY-NH2; disulfide 2-7; N-terminus assumed)	solubility at 18 h [4, 21]: ≥ 200 µM; solubility at 18 h [4, 22]: ≥ 200 µM; solubility at 18 h [4, 23]: ≥ 200 µM; solubility at 18 h [4, 24]: ≥ 200 µM; solubility at 18 h [4, 25]: ≥ 200 µM
